Here are results for five molecules from PMC8144573, “Distinct EH domains of the endocytic TPLATE complex confer lipid and protein binding” (Nature Communications, 2021).

Assay [1] deals with EH1.1. Briefly: Peptidome profiling by mass spectrometry, EH1.1. The format is binding, Arabidopsis thaliana. More on the design: scale not given here. The procedure:
(§1) Arabidopsis (Col-0) was grown vertically on 1/2 MS media for 7 days on a nylon mesh, harvested and flash-frozen in liquid nitrogen. Frozen seedlings (3 g/experiment) were ground using mortar and pestle. Proteins were extracted and denatured in 50 mM NaHCO3, 8 M Urea and sonicated three times for 1 min. Protein extracts were rotated for 30 min at room temperature after which the extract was subsequently centrifuged twice at 20,000 × g for 20 min. DTT was added to the supernatant, was added to a final concentration of 5 mM and incubated at 55 °C for 30 min. Proteins were alkylated by the addition of 100 mM iodoacetamide and incubated for 15 min in the dark after which the mix was subsequently diluted with 50 mM NaHCO3 to a final concentration of 2 M urea. Trypsin was added in a ratio of 1:75, protein:trypsin (Sequencing Grade Modified Trypsin, V5117, Promega) and incubated overnight at 37 °C on a rotating wheel.
(§2) Trypsin was removed using Sep-Pak Vac 3cc columns (500 mg, WAT036815, Waters). The extract was acidified using 1% TFA for 15 min on ice and cleared by centrifugation at 1780 × g for 15 min at room temperature. The cleared extract was split into four and applied on an equilibrated Sep-Pak columns (Waters, WAT036815, Lot # 010437235B). The column was pre-wet using 5 ml of 100% MeCN followed by sequential washing with 1 ml, 3 ml, and 6 ml of 0.1% TFA. After application of the extract, the column was washed sequentially with 1 ml, 5 ml, and 6 ml of 0.1% TFA followed by a 2 ml wash with 0.1% TFA, 5% acetonitrile. The peptides were eluted using three times 2 ml 0.1% TFA, 40% acetonitrile. The eluate was lyophilized for two days to remove TFA. 200 µg EH domain or his-GFP were coupled, in triplicate, during one hour to 25 µl Ni Sepharose 6 Fast Flow beads (GE Healthcare, 17-5318-01). Unbound protein was removed by three washing steps of 1 ml each. The lyophilized peptides were solubilized in 20 mM HEPES, 150 mM NaCl buffer, 0.2 mM CaCl2, divided and added to the coupled beads. The peptidome was incubated with the proteins for 4 h after which the beads were washed three times with 1 ml of the binding buffer. Peptides were eluted by the addition of 80 µl 20 mM HEPES pH 8, 8 M Urea. The supernatant was removed from the beads and desalted with Monospin C18 columns (Agilent Technologies, A57003100) after which they were freeze dried.
(§3) Peptides were redissolved in 20 µl loading solvent A (0.1% TFA in water/acetonitrile (98:2, v/v)) of which 5 µl was injected for LC-MS/MS analysis on an Ultimate 3000 RSLC nano LC (Thermo Fisher Scientific, Bremen, Germany) in-line connected to a Q Exactive mass spectrometer (Thermo Fisher Scientific). The peptides were first loaded on a trapping column made in-house (100 μm internal diameter (I.D.) × 20 mm, 5 μm beads C18 Reprosil-HD, Dr. Maisch, Ammerbuch-Entringen, Germany) and after flushing from the trapping column the peptides were separated on a 50 cm µPAC™ column with C18-endcapped functionality (Pharmafluidics, Belgium) kept at a constant temperature of 35 °C. Peptides were eluted by a linear gradient from 98% solvent A′ (0.1% formic acid in water) to 55% solvent B′ (0.1% formic acid in water/acetonitrile, 20/80 (v/v)) in 30 min at a flow rate of 300 nl/min, followed by a 5 min wash reaching 99% solvent B’. The mass spectrometer was operated in data-dependent, positive ionization mode, automatically switching between MS and MS/MS acquisition for the 5 most abundant peaks in a given MS spectrum. The source voltage was 2.2 kV, and the capillary temperature was 250 °C. […]

The test system of assay [2] is EH1.2. Briefly: Peptidome profiling by mass spectrometry, EH1.2. The format is binding, Arabidopsis thaliana. How it is done: as §1, §2, §3
Assay [3] has as its system EH1.2+EH1.1. Briefly: Peptidome profiling by mass spectrometry, EH1.2+EH1.1 vs GFP. The format is binding, Arabidopsis thaliana. From the text: Supplement 41467_2021_23314_MOESM6_ESM.xlsx, sheet "Supplementary Data 3" | column: EH1.2+EH1.1 vs GFP
Assay [4] relates to SCAMP5. Briefly: ES9 treatment, SCAMP5 localization. The format is cell-based, Arabidopsis. The conditions noted are these: 10 µM ES9, 5 min pretreatment then 30 min co-treatment with 2 µM FM4-64. The procedure: For ES9 treatment plants were pretreated for 5 min with 10 µM ES9, a generous gift of the lab of Jenny Russinova (PSB, VIB/Ugent, BE), in 1/2 MS media followed by 30 min co-treatment of ES9 with 2 µM FM4-64.

Assay [5] deals with 15N-labeled EH1.1 of AtEH1/Pan1 (amino acids 1-107) for NMR titration (Arabidopsis thaliana). In words: NMR titration; 1H,15N HSQC of 15N-labeled EH domain with successive addition of unlabeled peptide up to 1:4 excess; 20 mM MES 6.5, 150 mM NaCl, 2 mM CaCl2; chemical shift perturbations fitted to a binding isotherm; apparent.
15N-labeled EH1.1 of AtEH1/Pan1 (amino acids 1-107) for NMR titration (Arabidopsis thaliana), sequence (main, as listed by the source): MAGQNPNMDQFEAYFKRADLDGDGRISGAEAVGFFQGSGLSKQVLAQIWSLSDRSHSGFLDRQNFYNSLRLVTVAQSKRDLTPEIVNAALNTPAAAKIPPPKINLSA
The target in assay [6] is 15N-labeled EH1.2 of AtEH1/Pan1 (amino acids 346-449) for NMR titration (Arabidopsis thaliana). The assay is described as above.
15N-labeled EH1.2 of AtEH1/Pan1 (amino acids 346-449) for NMR titration (Arabidopsis thaliana), sequence (main, as listed by the source): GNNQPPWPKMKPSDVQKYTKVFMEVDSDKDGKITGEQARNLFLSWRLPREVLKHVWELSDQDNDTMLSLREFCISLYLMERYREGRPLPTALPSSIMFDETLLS
Assay [7] has as its target First EH domain of AtEH1/Pan1 (EH1.1), amino acids 1-107, His-tagged (Arabidopsis thaliana). In words: BLI; Octet RED96; His-tagged EH domain on Ni-NTA biosensors, covalently coupled with EDC/NHS; peptide as analyte in increasing concentrations; 20 mM HEPES pH 7.4, 150 mM NaCl, 2 mM CaCl2; 25 °C; steady state, one-site total binding model. On the technique in general: BLI is a label-free optical method that tracks binding on a fibre tip over time.

For the molecule DLTPEIVNAALNTPAAAK, the Difference in assay [1] (EH1.1 vs EH1.2) was 9.679; in assay [1] (EH1.1 vs EH1.2+GFP) it was 11.2082; in assay [1] (EH1.1 vs GFP), 12.7377; in assay [2] (EH1.2 vs EH1.1+GFP) it was -3.31; in assay [2] (EH1.2 vs GFP) it was 3.059; in assay [3], 7.898.

For YHASAIHVPGPEVAR, the Difference in assay [1] (EH1.1 vs EH1.2) stood at 0.9954; in assay [1] (EH1.1 vs EH1.2+GFP), 4.577; in assay [1] (EH1.1 vs GFP) it was 8.159; in assay [2] (EH1.2 vs EH1.1+GFP), 3.084; in assay [2] (EH1.2 vs GFP) it was 7.163; in assay [3], 7.661.

On to VFMEVDSDKDGKITGEQAR, for which the Difference is -15.7597 in assay [1] (EH1.1 vs EH1.2); -8.131 in assay [1] (EH1.1 vs EH1.2+GFP); -0.5027 in assay [1] (EH1.1 vs GFP); 15.5083 in assay [2] (EH1.2 vs EH1.1+GFP); 15.257 in assay [2] (EH1.2 vs GFP); 7.377 in assay [3].

Consider `O=[N+]([O-])c1ccc(NS(=O)(=O)c2ccc(Br)s2)cc1` [ES-9], for which the “effect on SCAMP5 localization (in words)” value in assay [4] is “caused SCAMP5 accumulation at the PM”.

B1: SCAMP5 double NPF peptide (peptide derived from the N-terminus of Secretory Carrier Membrane Protein 5) (peptide)
chain: DPNPFDEDEEIVNPFSK
modifications: not checked
In the case of B1, the Kd is 33 µM in assay [5], 190 µM in assay [6] and 59 µM in assay [7].
